Results from patent US10723741B1, “DNA polymerase IIIC inhibitors and use thereof” (Acurx Pharmaceuticals, LLC, priority 2018, dated 2020).
≈ marks a conversion by molar mass, not a printed value. Structures can show the parent of a compound that is named as a salt. Where two headings read alike, the source gives them in different places.

Legend:
Type in all cases: cell-based
[1] = tested on: Bacillus subtilis ATCC 6633; assay: Broth microdilution MIC, B. subtilis ATCC 6633; details: read-out: MIC B. subtilis ATCC 6633
Method in brief: (§1)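 Two-fold dilutions from 64 to 0.0625 μg/ml final, 1% DMSO, were inoculated at ~5.0×10^5 cfu/ml in the strain's test medium and kept 20 h at 37 °C in ambient atmosphere. Colonies were grown on MHA, with S. pneumoniae on blood agar under 5% CO2.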

[2] = tested on: Staphylococcus aureus ATCC 29213 (MSSA); assay: Broth microdilution MIC, S. aureus ATCC 29213 (MSSA); details: read-out: MIC S. aureus ATCC 29213 (MSSA)
Method in brief: as §1

[3] = tested on: Enterococcus faecalis ATCC 29212; assay: Broth microdilution MIC, E. faecalis ATCC 29212; details: read-out: MIC E. faecalis ATCC 29212
Method in brief: as §1

[4] = tested on: Escherichia coli ATCC 25922; assay: Broth microdilution MIC, E. coli ATCC 25922 (MHIIB w & w/o 4 mM EDTA); details: for MIC: Escherichia coli, read-out: MIC E. coli ATCC 25922; for MIC E. coli ATCC 25922 + 4 mM EDTA: with 4 mM EDTA
Method in brief: as §1

[5] = tested on: Staphylococcus aureus NRS384 (MRSA); assay: Broth microdilution MIC, S. aureus NRS384 (MRSA); set-up: MIC NRS 384 (MRSA): unit not given here; details: for MIC: Staphylococcus aureus, read-out: MIC NRS 384 (MRSA)
Method in brief: as §1

[6] = tested on: Enterococcus faecium ATCC 700221 (VRE); assay: Broth microdilution MIC, E. faecium ATCC 700221 (VRE); set-up: MIC E. faecium ATCC 700221 (VRE): unit: ug/mL; details: for MIC: Enterococcus faecium, read-out: MIC E. faecium ATCC 700221 (VRE)
Method in brief: as §1

[7] = tested on: Streptococcus pneumoniae ATCC 49619; assay: Broth microdilution MIC, S. pneumoniae ATCC 49619; details: read-out: MIC S. pneumoniae ATCC 49619
Method in brief: as §1

[8] = ATCC6633, broth microdilution, 37° C., 20 hours
[9] = broth microdilution, 37° C., 20 hours
[10] = ATCC29212, broth microdilution, 37° C., 20 hours
[11] = ATCC25922, without EDTA, broth microdilution, 37° C., 20 hours
[12] = ATCC49619, broth microdilution, 37° C., 20 hours
[13] = S. aureus NRS 384, broth microdilution, 37° C., 20 hours

| MIC [1, 8] [µg/mL] | MIC [2, 9] [µg/mL] | MIC [3, 10] [µg/mL] | MIC [4, 11] [µg/mL] | MIC E. coli ATCC 25922 + 4 mM EDTA [4, 9] [µg/mL] | MIC [5, 9] [µg/mL] | MIC [6, 9] [µg/mL] | MIC [7, 12] [µg/mL] | MIC NRS 384 (MRSA) [5, 13] | MIC E. faecium ATCC 700221 (VRE) [6, 9] | MIC [5, 13] [µg/mL] | MIC NRS 384 (MRSA) [5, 9] | SMILES | MIC ([1]; ATCC6633, 20 h) [µg/mL] | MIC ([2]; 20 h) [µg/mL] | MIC ([3]; ATCC29212, 20 h) [µg/mL] | MIC ([4]; ATCC25922, 20 h) [µg/mL] | MIC ([5]; 20 h) [µg/mL] | MIC ([6]; 20 h) [µg/mL] | MIC ([7]; ATCC49619, 20 h) [µg/mL] |
| --- | --- | --- | --- | --- | --- | --- | --- | --- | --- | --- | --- | --- | --- | --- | --- | --- | --- | --- | --- |
| 2 | 8 | 4 | > 64 | >64 | 4 | 2 | 4 | – | – | – | – | Cl.O=C(c1cccnc1)N1CCC(n2ncc3nc(NCc4ccc(Cl)c(Cl)c4)[nH]c(=O)c32)CC1 [Compound 256, 5-((3,4-Dichlorobenzyl)amino)-1-(1-nicotinoylpiperidin-4-yl)-1H-pyrazolo[4,3-d]pyrimidin-7(6H)-one hydrochloride] | – | – | – | – | – | – | – |
| 8 (≈ 28.2 µM) | 16 (≈ 56.5 µM) | 32 (≈ 113 µM) | > 64 | >64 | 16 (≈ 56.5 µM) | 16 (≈ 56.5 µM) | 16 (≈ 56.5 µM) | – | – | – | – | Cc1ccc(CNc2nc3cnn(C)c3c(=O)[nH]2)cc1C [Compound 33, 5-((3,4-Dimethylbenzyl)amino)-1-methyl-1H-pyrazolo[4,3-d]pyrimidin-7(6H)-one] | – | – | – | – | – | – | – |
| 2 (≈ 5.65 µM) | 4 (≈ 11.3 µM) | 4 (≈ 11.3 µM) | > 64 | >64 | 4 (≈ 11.3 µM) | 2 (≈ 5.65 µM) | 4 (≈ 11.3 µM) | – | – | – | – | O=c1[nH]c(NCc2ccc(Cl)c(Cl)c2)nc2cnn(CCO)c12 [Compound 76, 5-((3,4-dichlorobenzyl)amino)-1-(2-hydroxyethyl)-1H-pyrazolo[4,3-d]pyrimidin-7(6H)-one] | – | – | – | – | – | – | – |
| 1 (≈ 2.18 µM) | 4 (≈ 8.73 µM) | 8 (≈ 17.5 µM) | > 64 | >64 | – | – | 4 (≈ 8.73 µM) | 4/4 | 2/4 | – | – | CSCOCCOCCn1ncc2nc(NCc3ccc(Cl)c(Cl)c3)[nH]c(=O)c21 [Compound 300, 5-[(3,4-dichlorophenyl)methylamino]-1-[2-[2-(methylsulfanylmethoxy)ethoxy]ethyl]-6H-pyrazolo[4,3-d]pyrimidin-7-one] | – | – | – | – | – | – | – |
| 2 (≈ 5.31 µM) | 4 (≈ 10.6 µM) | 8 (≈ 21.3 µM) | > 64 | >64 | – | 4 (≈ 10.6 µM) | 2 (≈ 5.31 µM) | – | – | 2 (≈ 5.31 µM) | – | O=c1[nH]c(NCc2ccc(F)c(F)c2)nc2c(F)nn(Cc3cocn3)c12 [Compound 316, 5-((3,4-Difluorobenzyl)amino)-3-fluoro-1-(oxazol-4-ylmethyl)-1H-pyrazolo[4,3-d]pyrimidin-7(6H)-one] | – | – | – | – | – | – | – |
| 4 (≈ 5.8 µM) | 64 (≈ 92.8 µM) | 8 (≈ 11.6 µM) | > 64 | >64 | 32 (≈ 46.4 µM) | 2 (≈ 2.9 µM) | 32 (≈ 46.4 µM) | – | – | – | – | O=c1[nH]c(NCc2ccc(Cl)c(Cl)c2)nc2cnn(CCNCCn3ncc4nc(NCc5ccc(Cl)c(Cl)c5)[nH]c(=O)c43)c12 [Compound 78] | – | – | – | – | – | – | – |
| > 64 | > 64 | > 64 | > 64 | >64 | > 64 | > 64 | > 64 | – | – | – | – | Cn1ncc2nc(NCc3ncccn3)[nH]c(=O)c21 [Compound 11, 1-Methyl-5-((pyrimidin-2-ylmethyl)amino)-1H-pyrazolo[4,3-d]pyrimidin-7(6H)-one] | – | – | – | – | – | – | – |
| 2 (≈ 5.73 µM) | 4 (≈ 11.5 µM) | 4 (≈ 11.5 µM) | > 64 | 64 | – | – | 16 (≈ 45.8 µM) | – | 2/2 | – | 4/4 | Cn1nc(C#N)c2nc(NCc3ccc(Cl)c(Cl)c3)[nH]c(=O)c21 [Compound 45, 5-((3,4-dichlorobenzyl)amino)-1-methyl-7-oxo-6,7-dihydro-1H-pyrazolo[4,3-d]pyrimidine-3-carbonitrile] | – | – | – | – | – | – | – |
| 1 (≈ 1.98 µM) | 2 (≈ 3.97 µM) | 4 (≈ 7.93 µM) | > 64 | >64 | 2 (≈ 3.97 µM) | 2 (≈ 3.97 µM) | 4 (≈ 7.93 µM) | – | – | – | – | O=C(c1nccs1)N1CCC(n2ncc3nc(NCc4ccc(Cl)c(Cl)c4)[nH]c(=O)c32)CC1 [Compound 254, 5-[(3,4-Dichlorophenyl)methylamino]-1-[1-(thiazole-2-carbonyl)-4-piperidyl]-6H-pyrazolo[4,3-d]pyrimidin-7-one] | – | – | – | – | – | – | – |
| 4 (≈ 10.2 µM) | 16 (≈ 40.7 µM) | 16 (≈ 40.7 µM) | > 64 | 32 | 16 (≈ 40.7 µM) | 8 (≈ 20.3 µM) | 2 (≈ 5.09 µM) | – | – | – | – | O=c1[nH]c(NCc2ccc(Cl)c(Cl)c2)nc2cnn(C3CCNCC3)c12 [Compound 152, 5-((3,4-dichlorobenzyl)amino)-1-(piperidin-4-yl)-1H-pyrazolo[4,3-d]pyrimidin-7(6H)-one] | – | – | – | – | – | – | – |
| 1 (≈ 2.36 µM) | 4 (≈ 9.43 µM) | 4 (≈ 9.43 µM) | > 64 | >64 | 2 (≈ 4.71 µM) | 2 (≈ 4.71 µM) | 8 (≈ 18.9 µM) | – | – | – | – | CCOC(=O)CCCn1ncc2nc(NCc3ccc(Cl)c(Cl)c3)[nH]c(=O)c21 [Compound 205, ethyl 4-(5-((3,4-dichlorobenzyl)amino)-7-oxo-6,7-dihydro-1H-pyrazolo[4,3-d]pyrimidin-1-yl)butanoate] | – | – | – | – | – | – | – |
| 32 | 64 | > 64 | > 64 | 64 | 64 | 64 | 16 | – | – | – | – | Cl.O=c1[nH]c(NCc2ccc(Cl)c(Cl)c2)nc2cn(Cn3cncn3)nc12 [Compound 103, 2-((1H-1,2,4-triazol-1-yl)methyl)-5-((3,4-dichlorobenzyl)amino)-2H-pyrazolo[4,3-d]pyrimidin-7(6H)-one hydrochloride] | – | – | – | – | – | – | – |
| > 64 | > 64 | > 64 | > 64 | >64 | > 64 | > 64 | > 64 | – | – | – | – | Cn1ncc2nc(NCc3cn[nH]n3)[nH]c(=O)c21 [Compound 17, 5-(((2H-1,2,3-triazol-4-yl)methyl)amino)-1-methyl-1H-pyrazolo[4,3-d]pyrimidin-7(6H)-one] | – | – | – | – | – | – | – |
| 2 (≈ 5.8 µM) | 4 (≈ 11.6 µM) | 8 (≈ 23.2 µM) | > 64 | 64 | 4 (≈ 11.6 µM) | 4 (≈ 11.6 µM) | 8 (≈ 23.2 µM) | – | – | – | – | O=c1[nH]c(NCc2ccc(Cl)c(Cl)c2)nc2c(Cl)n[nH]c12 [Compound 55, 3-Chloro-5-[(3,4-dichlorophenyl)methylamino]-1,6-dihydropyrazolo[4,3-d]pyrimidin-7-one] | – | – | – | – | – | – | – |
| > 64 | > 64 | > 64 | > 64 | >64 | > 64 | > 64 | > 64 | – | – | – | – | CC(C(=O)O)n1cc2nc(NCc3ccc(Cl)c(Cl)c3)[nH]c(=O)c2n1 (stereo not drawn) [Compound 223, 2-(5-((3,4-dichlorobenzyl)amino)-7-oxo-6,7-dihydro-2H-pyrazolo[4,3-d]pyrimidin-2-yl)propanoic acid] | – | – | – | – | – | – | – |
| 1 (≈ 2.62 µM) | 4 (≈ 10.5 µM) | 4 (≈ 10.5 µM) | > 64 | 64 | 2 (≈ 5.23 µM) | 1 (≈ 2.62 µM) | 2 (≈ 5.23 µM) | – | – | – | – | O=c1[nH]c(NCc2ccc(Cl)c(Cl)c2)nc2cnn(CCCCO)c12 [Compound 89, 5-((3,4-Dichlorobenzyl)amino)-1-(4-hydroxybutyl)-1H-pyrazolo[4,3-d]pyrimidin-7(6H)-one] | – | – | – | – | – | – | – |
| 1 (≈ 2.73 µM) | 4 (≈ 10.9 µM) | 4 (≈ 10.9 µM) | > 64 | >64 | 2 (≈ 5.46 µM) | 2 (≈ 5.46 µM) | 4 (≈ 10.9 µM) | – | – | – | – | O=c1[nH]c(NCc2ccc(Cl)c(Cl)c2)nc2cnn(C3COC3)c12 [Compound 142, 5-((3,4-Dichlorobenzyl)amino)-1-(oxetan-3-yl)-1H-pyrazolo[4,3-d]pyrimidin-7(6H)-one] | – | – | – | – | – | – | – |

| SMILES | MIC [1, 8] [µg/mL] | MIC [2, 9] [µg/mL] | MIC [3, 10] [µg/mL] | MIC [4, 11] [µg/mL] | MIC E. coli ATCC 25922 + 4 mM EDTA [4, 9] [µg/mL] | MIC [5, 9] [µg/mL] | MIC [6, 9] [µg/mL] | MIC [7, 12] [µg/mL] | MIC NRS 384 (MRSA) [5, 13] | MIC E. faecium ATCC 700221 (VRE) [6, 9] | MIC [5, 13] [µg/mL] | MIC NRS 384 (MRSA) [5, 9] | MIC ([1]; ATCC6633, 20 h) [µg/mL] | MIC ([2]; 20 h) [µg/mL] | MIC ([3]; ATCC29212, 20 h) [µg/mL] | MIC ([4]; ATCC25922, 20 h) [µg/mL] | MIC ([5]; 20 h) [µg/mL] | MIC ([6]; 20 h) [µg/mL] | MIC ([7]; ATCC49619, 20 h) [µg/mL] |
| --- | --- | --- | --- | --- | --- | --- | --- | --- | --- | --- | --- | --- | --- | --- | --- | --- | --- | --- | --- |
| CN1CCC(n2ncc3nc(NCc4ccc(Cl)c(Cl)c4)[nH]c(=O)c32)C1 (stereo not drawn) [Compound 243, 5-((3,4-Dichlorobenzyl)amino)-1-(1-methylpyrrolidin-3-yl)-1H-pyrazolo[4,3-d]pyrimidin-7(6H)-one TFA salt] | – | – | – | – | 32 | – | – | – | – | – | – | – | 4 | 8 | 8 | > 64 | 8 | 4 | 4 |
